Data taken from patent publication US8916376B2, “Metal-binding peptides” (priority 2007, dated 2014).

Legend:
[1] = tested on: E. coli BLR(DE3) cells; test: Multi-step selection of E. coli clone library under toxic agents; apparent MIC; type: cell-based; conditions: for concentration above which no bacterial growth was observed: 24 hours selection cycle, FIG. 2
Source text: The pCRRL1 library was transformed into E. coli BLR(DE3) cells, which carry a T7 RNA polymerase gene under control of IPTG-regulated lacUV5 promoter. The number of individual clones was estimated to be ˜10^5. The clone library was allowed to grow for 4 hrs in order to obtain several replicates of it, and then split into parts intended for parallel evolution experiments using different toxic agents. Expression of the randomized ORF was induced by IPTG, and the multi-step selection experiment was started by adding appropriate amounts of NiCl2, AgNO3, or K2TeO3 to the cell cultures, as shown in FIG. 2 with the selection of the E. coli clones resistant to NiCl2 (a), AgNO3 (b), and K2TeO3 (c). Large filled circles represent bacterial cultures successfully growing at indicated concentrations of each toxic agent. […] Black arrows point to the most resistant bacterial cultures, from which individual clones have been isolated for further studies of their toxicity tolerance. Grey arrow marks the culture, which was used as a non-adapted control in tests of the bacterial resistance towards nickel, silver, and tellurite. […] A concentration gradient of the toxic agents was chosen to cover a range within which an MIC was expected to be found. Thus, at every step the selective pressure was adjusted depending on the achieved level of the toxicity tolerance to keep the evolving bacterial populations under subinhibitory conditions. Substantial increase in bacterial resistance to Ni^2+, Ag^+, and TeO3^2− was observed during four, five, and seven consecutive selection cycles, respectively. After that, no further change in toxicity tolerance was detected. During the selection procedure, the apparent MIC values increased from 4 to 10 mM NiCl2, from 0.03 to 0.90 mM AgNO3, and from 0.7 to 20 μM K2TeO3. Eight clones were isolated from each of the three evolved resistant populations by plating. These were tested for the dependence of growth on mini-gene expression by measuring OD600 after 24 hrs of cultivation in the presence of corresponding toxic agent, with and without IPTG. […] All eight Ni^2+-resistant clones harbored the same plasmid (designated as pCRRL1-N94-01) with a mini-gene variant coding for the peptide […] (SEQ ID NO 1), a structural model of which is shown in FIG. 2a. In addition, a 9-bp deletion was detected in the spacer region between the ORF and the transcription terminator. However, since no important element of the mini-gene operon was located there, the deletion was unlikely to affect the peptide expression. […] All TeO3^2−-resistant clones carried a version of plasmid pCRRL1-T507-01 that has a 225-bp deletion of the whole mini-gene transcriptional unit together with adjacent downstream sequence. This deletion obviously abolishes T7 RNA polymerase activity on the plasmid, making it irresponsive to IPTG induction.

[2] = tested on: E. coli BLR(DE3) cells; test: Dependence of growth under toxic agent on mini-gene expression (OD600, with and without IPTG); type: cell-based; conditions: for effect of IPTG-induced mini-gene expression on growth (OD600): resistant clones carrying the mini-gene, 24 hrs cultivation with the corresponding toxic agent, with and without IPTG
Source text: The pCRRL1 library was transformed into E. coli BLR(DE3) cells, which carry a T7 RNA polymerase gene under control of IPTG-regulated lacUV5 promoter. The number of individual clones was estimated to be ˜10^5. The clone library was allowed to grow for 4 hrs in order to obtain several replicates of it, and then split into parts intended for parallel evolution experiments using different toxic agents. Expression of the randomized ORF was induced by IPTG, and the multi-step selection experiment was started by adding appropriate amounts of NiCl2, AgNO3, or K2TeO3 to the cell cultures, as shown in FIG. 2 with the selection of the E. coli clones resistant to NiCl2 (a), AgNO3 (b), and K2TeO3 (c). Large filled circles represent bacterial cultures successfully growing at indicated concentrations of each toxic agent. […] Black arrows point to the most resistant bacterial cultures, from which individual clones have been isolated for further studies of their toxicity tolerance. Grey arrow marks the culture, which was used as a non-adapted control in tests of the bacterial resistance towards nickel, silver, and tellurite. […] A concentration gradient of the toxic agents was chosen to cover a range within which an MIC was expected to be found. […] After that, no further change in toxicity tolerance was detected. […] In addition, a 9-bp deletion was detected in the spacer region between the ORF and the transcription terminator. […]
The existence of a positive correlation between the level of mini-gene expression and the extent of toxicity tolerance would strongly argue in favor of a role for the mini-gene in the mechanism of stress resistance of the evolved clones. […] Comparison of the bacterial growth parameters measured in the presence and absence of IPTG made it possible to distinguish the specific effect of mini-gene expression on culture survival and propagation from the basal resistance to the hostile environment acquired through adaptive genomic mutations. […]

[3] = E. coli BLR(DE3) pCRRL1 library, start of the selection procedure
[4] = evolved resistant population, end of the selection procedure

Molecule	concentration above which no bacterial growth was observed [1]	apparent MIC [1, 3]	apparent MIC [1, 4]	concentration at which culture was able to grow ([2]; non-adapted control culture, insensitive to IPTG)	effect of IPTG-induced mini-gene expression on growth (OD600) [2]
O=[N+]([O-])[O-].[Ag+] [AgNO3]	above 0.9 mM	0.03 mM	0.90 mM	–	–
O=[Te]([O-])[O-].[K+].[K+] [K2TeO3]	above 18 mM	0.0007 mM	0.02 mM	–	–
[Cl][Ni][Cl] [NiCl2]	–	4 mM	10 mM	below 4 mM	–
MSHATATPASRRRLPLRS [SEQ ID NO 2, 18-mer peptide encoded by the mini-gene of plasmid pCRRL1-A226-01 in Ag+-resistant E. coli clones]	–	–	–	–	not affected by IPTG
MSHAYFVCNRCDSSNHSAHE [SEQ ID NO 1, 20-mer peptide encoded by the mini-gene of plasmid pCRRL1-N94-01 in Ni2+-resistant E. coli clones]	–	–	–	–	Significant IPTG-induced growth improvement
